Assay results published in patent US5221692A, “Ether linked and relatively nonpungent analogues of N-nonanoyl vanillylamide” (National Science Council, priority 1991, dated 1993).
Where two headings read alike, the source gives them in different places.

Tests used:
[1] = oral; cited from earlier work
[2] = system: acetic acid-induced writhing in mice; assay: Acetic acid-induced writhing (antinociceptive test); type: in vivo, male mice (ddk strain); settings: for ED50: Mus musculus, ip, 0.5 h, read-out: ED50 (95% C.L.); for Potency ratio: indomethacin 1.00
Description: Evaluation of antinociceptive effects Following the method described by Koster et al., Fed. proc. 18, 412 (1959), antinociceptive tests were carried out in male mice after intraperitoneal administration of NVA and its analogues. Briefly, four groups of eight male mice (ddk strain) weighing 18-22 g were brought to the laboratory on the day prior to study, and housed overnight with free access to food and water. Solutions of NVA and its analogues, as well as indomethacin were made up to 10% ethanol, 10% […] 80% saline, and then diluted with saline to the required concentrations. The test solution was administered by intraperitoneal injection with single dose of 0.2 mL (vehicle administered as control). 20 min after injection, 0.2 mL of 0.7% acetic acid was injected intraperitoneally to induce writhing. Following injection, the mice were placed […] acid injection, a writhe being defined as a sequence of arching of the back, followed by pelvic rotation and hind limb extension.
^a) Writhes were counted for 30 min after injection of acetic acid
^b) ED50 and 95% confidence limits were calculated by the
Litchfield and Wilcoxon method.

[3] = system: right eye of male Wistar rats; assay: Wiping test (potency of pungency); type: in vivo
Description: The wiping test was performed as described by Szolcsanyl and Jansco-Gabor, Arzneim.-Forsch./Drug Res. 25, 1877 (1975). Briefly, solutions of CAP and its analogues were prepared as described above in successive tenfold dilutions. Each dilution was dropped into the right eye (vehicle being administered to the left eye as negative control) of male Wistar rats weighing 180-250 g, and the total number of protective movements (scratching, wiping of the eye with the foreleg) was counted for 30 min. Each concentration was applied to a total of 6 rats, and a dose-response curve were obtained form the mean value of each group. […] On the basis of the MPP values thus obtained, RPP (relative pain-producing potency) values were determined with respect to the pain-producing potency of CAP, which was taken as 1000.
^a) Methods are described by Szolcsanyi & JanscoGabor.

[4] = intraperitoneal, mice, acetic acid 20 min after injection, writhes counted for 30 min, 95% confidence limits, Litchfield and Wilcoxon
[5] = relative to capsaicin, taken as 1000

In the case of `CCCCCCCCC=CCCCCCCCC(=O)NCc1ccc(O)c(OC)c1` [olvanil, N-vanillyl-9-octadecenamide], the ED50 [1] is given as 170 mg/kg.

With `COc1ccc2c(c1)c(CC(=O)O)c(C)n2C(=O)c1ccc(Cl)cc1` [Indomethacin, reference compound] the ED50 [2, 4] was 1.1 mg/kg.

For `CCCCCCCCC(=O)NCc1ccc(OC(=O)CCC(=O)O)c(OC)c1` [Compound 3, N-(4-o-succinicacid-3-methoxybenzyl)-nonamide], the “pungency (in words)” value ([3]; rat, in vivo) was “nearly equivalent to that of NVA and CAP”, the “MPP (Moderate pain-producing potency)” value ([3]; rat, in vivo, 30 min) was 270 µg/mL and the “RPP (Relative pain-producing potency)” value ([3]; rat, in vivo, 30 min) was 333. The ED50 [2, 4] was 0.06 mg/kg and the Potency ratio ([2]; intraperitoneal, mice) was 18.33.

`CCCCCCCCC(=O)NCc1ccc(OCCO)c(OC)c1` [Compound 6, N-(4-o-glycol-3-methoxybenzyl)-nonamide] gave an ED50 [2, 4] of 0.14 mg/kg and a Potency ratio ([2]; intraperitoneal, mice) of 7.86.

Molecule `CCCCCCCCC(=O)NCc1ccc(OCC(O)CO)c(OC)c1` (stereo not shown) [Compound 4, N-(4-o-glycerol-3-methoxybenzyl)-nonamide] has an ED50 [2, 4] of 0.09 mg/kg and a Potency ratio ([2]; intraperitoneal, mice) of 12.22.

With `CCCCCCCCC(=O)NCc1ccc(OCC(=O)O)c(OC)c1` [Compound 5] the ED50 [2, 4] was 0.04 mg/kg, the “antinociceptive effect (in words)” value ([2]; intraperitoneal, mice) was “the most potent in its antinociceptive effect” and the Potency ratio ([2]; intraperitoneal, mice) was 27.50.

With `CCCCCCCCC(=O)NCc1ccc(O)c(OC)c1` [NVA, N-nonanoyl vanillylamide] the “RPP (Relative pain-producing potency)” value [3, 5] was 409, the ED50 [2] was 0.08 mg/kg and the Potency ratio ([2]; intraperitoneal, mice) was 13.75.

For `COc1cc(CNC(=O)CCCC/C=C/C(C)C)ccc1O` [Capsaicin, trans-8-methyl-N-vanillyl-6-nonenamide], the “MPP (Moderate pain-producing potency)” value ([3]; concentration inducing 32 scratchings, eye instillation, rats, 30 min) was 90 µg/mL, the “median response (number of scratchings)” value ([3]; counted for 30 min, eye instillation, rats) was 32 scratchings and the “RPP (Relative pain-producing potency)” value [3, 5] was 1000. It also gave an ED50 [2, 4] of 0.07 mg/kg and a Potency ratio ([2]; intraperitoneal, mice) of 15.71.
